# Source: patent publication US10729659B2, “Nanogel-mediated drug delivery” (The Cleveland Clinic Foundation, priority 2012, dated 2020)
# What was measured:
# [1] = DAC stability in liver extract; assay type: in vitro ADME; conditions: 15% w/v liver extract of athymic nude mice
# Method: Freshly prepared DAC solution (50 μg/mL) or DAC loaded nanogel (equivalent drug concentration) was added in cell culture media (DMEM supplemented with 15% FBS and 1% penicillin-streptomycin), and incubated in cell culture incubator at 37° C. in a 5% CO2. Samples were incubated as 2 mL aliquots at 37° C., collected at various time points and lyophilized for 48 h at −48° C., 3.5 Pa, using FreeZone 4.5 (Labconco Corp., Kansas City, Mo.). DAC was extracted from lyophilized samples by adding 3 mL of methanol and kept on an orbital rotating shaker at 100 rpm in cold room overnight. 1 mL of methanolic extract was centrifuged at 14,000 rpm for 15 min at 4° C.; supernatant was collected and analyzed by HPLC. Identical protocol was followed for analyzing the stability of DAC in Mili Q water containing 15% heat inactivated or normal serum. Stability of DAC was also analyzed in 15% w/v liver extract of athymic nude mice using the indicated protocol.
# [2] = cited from earlier work
# MCF-7/Adr cells = test: Cell viability assay, DAC solution vs DAC nanogel; assay type: cell-based; conditions: Homo sapiens, NCI/ADR-RES, read-out: IC50 value at day 12 post drug treatment
# Method: Cytotoxicity of DAC in solution vs. DAC loaded nanogel was compared at day 5, 10 or 12 post drug additions in drug resistant cells. In a typical experiment; cells were seeded at 3000 cells/well in 96 well plates. 24 h post seeding, 0.1 mL cell culture media containing different concentrations of DAC solution or DAC nanogel was added and incubated for 3 d. Post incubation; cells were washed with 1×-DPBS and then replaced with drug free medium at every 48 h until cell viability was measured via an MTS assay kit (Promega CellTiter 96 AQueous Promega, Madison, Wis.). The effects of the drug on cell proliferation were calculated as the percentage cell growth vs. growth of control cells that received no drug treatment.
# Cytotoxicity of DAC in solution vs. different DAC loaded nanogel formulations was compared at day 5, 10 or 12 post drug additions in drug resistant cells. In a typical experiment, cells were seeded at 3000 cells/well in 96 well plates. Twenty four hr post seeding, 0.1 mL cell culture media containing different concentrations of DAC solution or DAC nanogel was added and incubated for 3 d. […] Cell viability was measured using MTS (Promega CellTiter 96 AQueous Promega, Madison, Wis.). The effects of the drug on cell proliferation were calculated as the percentage cell growth vs. growth of control cells that received no drug treatment.
smiles,measurement,setting,value
"Nc1ncn([C@H]2C[C@H](O)[C@@H](CO)O2)c(=O)n1 [DAC, 5-aza-2′-deoxycytidine]","Complete degradation of DAC, time post incubation",[1],60 min
same,Half-life,[2]; in humans,10 to 35 min
same,Clearance,[2]; in vivo,very high clearance
same,IC50,MCF-7/Adr cells,0.434 µg/mL
